Reference: PubChem BioAssay AID328 (DTP/NCI, 2004)
Several values for one entry are separate records, joined by “and”; a condition that tells them apart may be missing. Identical values can stand only once. Toxic doses and inconclusive results are not listed. Rule for the calls: active = survival T/C of 150% or more; inactive = T/C below 125% in these data.

Tested on: BDF1 mice, P388 leukemia ip, median survival T/C
Assay: NCI In Vivo Anticancer Drug Screen. Data for tumor model P388 Leukemia (intraperitoneal) in B6D2F1 (BDF1) mice
Settings: endpoint: median survival time, higher = longer survival
How it was run: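 T/C = treated-group survival ÷ vehicle-control survival; tumour transplanted into mice before dosing.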

[1] = dose: 100.0 mg/kg/injection, schedule: Q01DX009 (ip), vehicle: saline with Tween-80
[2] = dose: 200.0 mg/kg/injection, schedule: Q01DX009 (ip), vehicle: saline with Tween-80
[3] = dose: 50.0 mg/kg/injection, schedule: Q01DX009 (ip), vehicle: saline with Tween-80
[4] = dose: 100.0 mg/kg/injection, schedule: Q04DX003 (ip), vehicle: saline with Tween-80
[5] = dose: 50.0 mg/kg/injection, schedule: Q01DX009 (ip), vehicle: saline
[6] = dose: 50.0 mg/kg/injection, schedule: Q01DX009 (ip), vehicle: Klucel (hydroxypropylcellulose) (HPC)

Measured: T/C

CSCCCNC(=O)c1csc(-c2csc(CCNC(=O)c3ccccc3)n2)n1
inactive: dose: 8.0 mg/kg/injection, schedule: Q01DX009 (ip), vehicle: saline 100 % of control | dose: 16.0 mg/kg/injection, schedule: Q01DX009 (ip), vehicle: saline 100 % of control | dose: 32.0 mg/kg/injection, schedule: Q01DX009 (ip), vehicle: saline 110 % of control | dose: 64.0 mg/kg/injection, schedule: Q01DX009 (ip), vehicle: saline 120 % of control

CC(=O)CC(C)=O.CC(=O)CC(C)=O.Cn1ccnc1.Cn1ccnc1.[Ni]
inactive: dose: 12.5 mg/kg/injection, schedule: Q04DX002 (ip), vehicle: saline 103 % of control | dose: 25.0 mg/kg/injection, schedule: Q04DX002 (ip), vehicle: saline 107 % of control | dose: 50.0 mg/kg/injection, schedule: Q04DX002 (ip), vehicle: saline 119 % of control

N#Cc1c2c(c(O)[nH]c1=O)CCCC2
inactive: [1] 120 % of control | [2] 105 % of control | dose: 400.0 mg/kg/injection, schedule: Q01DX009 (ip), vehicle: saline with Tween-80 120 % of control

COc1cc(/C=C2\C(=O)NC(=O)N(c3ccccc3)C2=O)cc(OC)c1OC
inactive: dose: 25.0 mg/kg/injection, schedule: Q01DX009 (ip), vehicle: saline with Tween-80 109 % of control | [3] 118 % of control | dose: 50.0 mg/kg/injection, schedule: Q04DX003 (ip), vehicle: saline with Tween-80 100 % of control | [1] 118 % of control | [4] 108 % of control | dose: 200.0 mg/kg/injection, schedule: Q04DX003 (ip), vehicle: saline with Tween-80 112 % of control

CC(CCCSC(=N)N)SC(=N)N (centres undefined)
inactive: dose: 12.5 mg/kg/injection, schedule: Q01DX009 (ip), vehicle: saline 103 % of control | dose: 25.0 mg/kg/injection, schedule: Q01DX009 (ip), vehicle: saline 96 % of control and 105 % of control | [5] 97 % of control and 122 % of control | dose: 100.0 mg/kg/injection, schedule: Q01DX009 (ip), vehicle: saline 102 % of control and 103 % of control

O=C1/C(=C/c2ccco2)CC2CCCCC12 (centres undefined)
inactive: [6] 104 % of control | dose: 75.0 mg/kg/injection, schedule: Q01DX001 (ip), vehicle: other 100 % of control | dose: 75.0 mg/kg/injection, schedule: Q01DX009 (ip), vehicle: Klucel (hydroxypropylcellulose) (HPC) 113 % of control | dose: 150.0 mg/kg/injection, schedule: Q01DX001 (ip), vehicle: other 104 % of control | dose: 150.0 mg/kg/injection, schedule: Q01DX009 (ip), vehicle: Klucel (hydroxypropylcellulose) (HPC) 100 % of control

CC(=O)O.O=CCO.[C-]#[O+].[C-]#[O+].[C-]#[O+].[C-]#[O+].[Rh].[Rh]
inactive: dose: 25.0 mg/kg/injection, schedule: Q01DX009 (ip), vehicle: Klucel (hydroxypropylcellulose) (HPC) 119 % of control | [6] 122 % of control

N=C(N)c1ccc(C(=N)N)cc1
inactive: dose: 25.0 mg/kg/injection, schedule: Q01DX009 (ip), vehicle: water 100 % of control | dose: 50.0 mg/kg/injection, schedule: Q01DX009 (ip), vehicle: water 94 % of control | dose: 50.0 mg/kg/injection, schedule: Q04DX003 (ip), vehicle: water 95 % of control | dose: 100.0 mg/kg/injection, schedule: Q01DX009 (ip), vehicle: water 100 % of control | dose: 100.0 mg/kg/injection, schedule: Q04DX003 (ip), vehicle: water 100 % of control | dose: 200.0 mg/kg/injection, schedule: Q04DX003 (ip), vehicle: water 100 % of control

c1cc2c(c(CC3CO3)c1CC1CO1)OCCOCCOCCOCCO2 (centres undefined)
inactive: dose: 6.0 mg/kg/injection, schedule: Q01DX009 (ip), vehicle: saline + alcohol 98 % of control and 105 % of control | dose: 12.0 mg/kg/injection, schedule: Q01DX009 (ip), vehicle: saline + alcohol 108 % of control | dose: 24.0 mg/kg/injection, schedule: Q01DX009 (ip), vehicle: saline + alcohol 113 % of control

O=C(C(Br)C(Br)c1ccccc1)N1CCOCC1 (centres undefined)
inactive: dose: 100.0 mg/kg/injection, schedule: Q04DX003 (ip), vehicle: saline sonified 104 % of control | dose: 200.0 mg/kg/injection, schedule: Q04DX003 (ip), vehicle: saline sonified 100 % of control | dose: 400.0 mg/kg/injection, schedule: Q04DX003 (ip), vehicle: saline sonified 113 % of control

NNC(=O)NC(=O)NN
inactive: [5] 104 % of control | dose: 100.0 mg/kg/injection, schedule: Q04DX003 (ip), vehicle: saline 113 % of control | dose: 200.0 mg/kg/injection, schedule: Q04DX003 (ip), vehicle: saline 113 % of control

COC(=O)c1cc(Cl)c(C(=O)OC)cc1Cl
inactive: dose: 100.0 mg/kg/injection, schedule: Q04DX003 (ip), vehicle: Klucel (hydroxypropylcellulose) (HPC) 104 % of control | dose: 200.0 mg/kg/injection, schedule: Q04DX003 (ip), vehicle: Klucel (hydroxypropylcellulose) (HPC) 96 % of control | dose: 400.0 mg/kg/injection, schedule: Q04DX003 (ip), vehicle: Klucel (hydroxypropylcellulose) (HPC) 100 % of control

CCOC(=O)N1CCN(C(=O)OCC)CC1
inactive: [3] 100 % of control | [1] 100 % of control | [4] 90 % of control | [2] 95 % of control
